One assay deals with T1, NK2 receptor (Mesocricetus auratus, UniProt P51144).
T1 construct: to hamster urinary bladder membranes; from tissue; host or cells: hamster urinary bladder membranes
T1 sequence (P51144 1-384): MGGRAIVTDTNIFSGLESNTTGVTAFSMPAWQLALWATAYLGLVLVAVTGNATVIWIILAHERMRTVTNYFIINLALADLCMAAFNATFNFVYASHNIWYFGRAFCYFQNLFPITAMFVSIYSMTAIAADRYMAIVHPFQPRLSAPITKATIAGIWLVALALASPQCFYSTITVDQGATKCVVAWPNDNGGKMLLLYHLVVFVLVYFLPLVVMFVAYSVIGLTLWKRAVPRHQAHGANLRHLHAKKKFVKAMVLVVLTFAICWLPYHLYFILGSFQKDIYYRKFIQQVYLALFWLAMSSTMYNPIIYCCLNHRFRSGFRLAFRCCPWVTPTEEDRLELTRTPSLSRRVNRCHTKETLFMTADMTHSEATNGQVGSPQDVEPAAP
The experiment in a line: NK2 receptor binding: binding of [^125 I]-iodohistidyl neurokinin A (0.1 nM) to hamster urinary bladder membranes. On the procedure: Some of the compounds of the invention were evaluated in tachykinin binding assays.
For the NK2 receptor-measurement of the binding of [^125 I]-iodohistidyl neurokinin A (0.1 nM) to hamster urinary bladder membranes. See Buck and Shatzer, Life Sci., 42:2701 (1988).

The next assay has as its system NK1 receptor. The settings on record: cited from earlier work; for antagonists at the NK1 receptor: nonpeptide antagonists.
The next assay concerns NK2 receptors. The settings on record: cited from earlier work.

pIC50: −log10 of the molar value.

With `COc1cccc(COC(=O)NC(Cc2c[nH]c3ccccc23)C(=O)NC(C)(Cc2ccccc2)C(O)CCCO)c1OC` (single isomer, unassigned) [Compound XX, Carbamic acid, [2-[[2,5-dihydroxy-1-methyl-1-(phenylmethyl)pentyl]amino]-1-(1H-indol-3-ylmethyl)-2-oxoethyl]-, (2,3-dimethoxyphenyl)methyl ester], the negative logarithm of the IC50 (pIC50) (as a rule, the IC50 on a negative log10 scale, so that one unit is a factor of ten) at NK2 receptor is 6.44.

Take `COc1cccc(COC(=O)NC(Cc2c[nH]c3ccccc23)C(=O)NC(C)(Cc2ccccc2)C(O)CCCO)c1OC` (single isomer, unassigned) [Compound XXI, Carbamic acid, [2-[[2,5-dihydroxy-1-methyl-1-(phenylmethyl)pentyl]amino]-1-(1H-indol-3-ylmethyl)-2-oxoethyl]-, (2,3-dimethoxyphenyl)methyl ester]: the pIC50 at NK2 receptor was 6.48.

In the case of `COc1ccccc1CN[C@H]1C2CCN(CC2)[C@H]1C(c1ccccc1)c1ccccc1` [CP-96,345], the “antagonists at the NK1 receptor” value with NK1 receptor is listed as “antagonists at the NK1 receptor”.

For `COc1cccc(COC(=O)N[C@@H](Cc2c[nH]c3ccccc23)C(=O)N[C@@](C)(Cc2ccccc2)C(=O)OCCO)c1OC` [Compound IV, L-Phenylalanine, N-[N-[[(2,3-dimethoxyphenyl)methoxy]carbonyl]L-tryptophyl]-α-methyl- , 2-hydroxyethyl ester], on NK2 receptor, the pIC50 was 6.82.

The molecule `COc1cccc(COC(=O)N[C@@H](Cc2c[nH]c3ccccc23)C(=O)N[C@@](C)(Cc2ccccc2)C(=O)N(C)CCO)c1OC` [Compound VII, L-Phenylalaninamide, N-[[(2,3-dimethoxyphenyl)methoxy]-carbonyl]-L-tryptophyl-N-(2-hydroxyethyl)-N,α-dimethyl] gave a pIC50 at NK2 receptor of under 5.00.

Turning to `COc1cccc(COC(=O)N[C@@H](Cc2c[nH]c3ccccc23)C(=O)N[C@](C)(COCCO)Cc2ccccc2)c1OC` [Compound XII, Carbamic acid, [2-[[1-[(2-hydroxyethoxy)methyl]-1-methyl-2-phenylethyl]amino]-1-(1H-indol-3-ylmethyl)-2-oxoethyl]-, (2,3-dimethoxyphenyl)methyl ester, [S-(R*, R*)]-.], at NK2 receptor, the pIC50 was 6.60.

Regarding `COc1ccccc1CC(=N)N1C[C@@H]2C(=O)CCC(c3ccccc3)(c3ccccc3)[C@@H]2C1` [RP 67580], the “antagonists at the NK1 receptor” value in the assay on NK1 receptor is “antagonists at the NK1 receptor”.

On to `CC(=O)NC1(c2ccccc2)CCN(CC[C@H](CN(C)C(=O)c2ccccc2)c2ccc(Cl)c(Cl)c2)CC1` [SR 48969], for which the “affinity and selectivity for NK2 receptors” value in the assay with NK2 receptors was “high affinity and selectivity for NK2 receptors”.

The molecule `COc1cccc(COC(=O)N[C@@H](Cc2c[nH]c3ccccc23)C(=O)N[C@@](C)(Cc2ccccc2)C(=O)CCCO)c1OC` [XXVI, Carbamic acid, [2-[[5-hydroxy-1-methyl-2-oxo-1-(phenylmethyl)pentyl]amino]-1-(1H-indol-3-ylmethyl)-2-oxoethyl]-, (2,3-dimethoxyphenyl)methyl ester] had a pIC50 at NK2 receptor of 7.66.

As for substance-P, the “affinity for NK1 receptors” value with NK1 receptor was “highest affinity for NK1 receptors”.

(Values after US5554644A, “Tachykinin (NK2) antagonists” (Warner-Lambert Company, priority 1994, dated 1996).)
